From patent US20210046143A1, “METHOD FOR TREATMENT OF THE HUMAN BODY BY THERAPY BY ADMINISTERING A COMPOSITION COMPRISING A PLANT EXTRACT OF THE SPECIE HEDYCHIUM CORONARIUM” (Societe D'exploitation De Produits Pour Les Industries …, priority 2016, published 2021) come the findings set out here.

SMILES strings stand for the structures.

In test [1] the test system is murine B16 melanocytes (B16-F0 line). The test can be described thus: Melanin titration in B16 melanocytes (melanogenesis). It is filed as cell-based. The conditions noted are these: Mus musculus, B16F0; kojic acid 1 mM; read-out: Inhibition of the melanin release in the culture medium. How it is done: • 1)—Background Information The aim of this study is to evaluate the effects of HCR extracts on melanogenesis in an in vitro model of murine B16 melanocytes. Cells used in this study were murine melanocytes (B16-F0 line, LGC standards, ATCC-CRL-6322) extracted from murine skin. This cells lines synthesizes a great quantity of melanin which is released in the culture media (so called supernatants), so a titration by spectrophotometry is easy to achieve. These melanocytes were cultured as monolayers; the test compounds were applied during seventy two hours and the synthesized melanin was then released and measured out in the supernatants. A XTT assay was previously performed, to check the cells viability, in order to determine the concentrations to be tested, as described in Example 2. • 2)—Dose Determination (CytotoxicityNiability Check by XTT Assay) and Evaluated Test Compound
B16 melanocytes were seeded in 24-wells plates. […]
Cells were seeded into 24-wells plates (at a cell density of […], i.e. 31,250 B16/cm^2), in the same medium as previously described, one day before treatment (incubation at 37° C./5% CO2). […] After 48 or 72 hours of treatment, the supernatants were homogenized and aliquots were transferred to 96-well plates for spectrophotometry reading at 492 nm wavelength (reading in duplicate). […]

The next test has as its system IL-8. The test can be described thus: IL-8 release by human skin explants, pollution model (BaP), ELISA. It is filed as cell-based. The conditions noted are these: PMA 1 μg/ml systemic, 24 h, without pollution. Here is the method: b)—The product was systemically applied for 24 hours, on human skin explants (diameter of 8 mm), provided by Biopredic™ International (Rennes), which derived from mammary plastic surgery (person);
c)—The product was then applied again during pollution, for another 24 hours. Said pollution was induced in this model by application of an environmental pollutant, benzo(a)pyrene (3,4-benzopyrene/BaP) as systemic treatment, i.e. in the culture medium. This pollutant induces IL-8 release (SEPhRA results).
a)—A 2% (DE) HCR extract is diluted in the culture medium to obtain a 0.1% (DE) HCR extract, which is used as the test compound.
b)—Said HCR extract was systemically applied on the skin explants as a twenty-four hours pre-treatment. […]
e)—In order to validate the IL-8 titration, an additional condition was evaluated, i.e. stimulation with a reference pro-inflammatory molecule PMA (Phorbol 12-myristate 13-acetate, Sigma P8139), at 1 μg/ml. […]
d)—The inflammatory cytokine IL-8 was then measured out with a commercial kit from Bio-Techne/R&Dsystems (D8000C), which is an ELISA method. […] Titration raw data were obtained by measuring the absorbance or the optical density (OD) at 450 nm wavelength, with 570 nm as a reference.
e)—The concentrations of IL-8 measured in the samples were determined by using a concentration range of an IL-8 standard. […]
For orientation: An ELISA detects its analyte on a solid surface through an enzyme-linked reagent.

With `O=c1cc(CO)occ1O` [kojic acid], the inhibition at 1000 µM in test [1] was greater than 90%.

For the compound `CCCCCCCCCCCCCC(=O)O[C@@H]1[C@@H](C)[C@@]2(O)[C@@H](C=C(CO)C[C@]3(O)C(=O)C(C)=C[C@@H]23)[C@@H]2C(C)(C)[C@]12OC(C)=O` [PMA, Phorbol 12-myristate 13-acetate], in the test with IL-8, the “IL-8 release, change compared to untreated/unpolluted control” value was “+224%”.

The term inhibition denotes the change of the read-out against control, counted positive when it falls.
